Experimental data: patent US9827260B2, “Composition for buffered aminoalkyl glucosaminide phosphate compounds and its use for enhancing an immune response” (GlaxoSmithKline Biologicals s.a., priority 2013, dated 2017)

Assays:
[1] = Accelerated stability test (forced degradation), 14 days at 40° C; conditions: both buffers at pH=7.0, FIG. 5
[2] = Sonication processing time to achieve a clear solution of CRX-601 buffered formulations; format: physicochemical
Protocol: (§1) CRX-601 was formulated in the 10 mM HEPES buffered at pH=7.0 at 2 mg/mL target concentration by weighing 3.99 mg of CRX-601 and adding 1.877 mL of 10 mM HEPES followed by ultrasonication in a water bath sonicator. After 25 minutes the solution was visibly clear, but the sonication was continued since the other CRX-601 formulations with the other buffers employed herein had not yet achieved similar visual appearance. This was done because the goal was to subject each CRX-601 buffered formulation to the same amount of processing energy.
as §1, with “pH=8.0” for “pH=7.0”
Each of the buffer solutions was then sonciated to reduce the particle size to allow for sterile filtration.

stability of the AGP in HEPES as compared against phosphate buffer [1]	sonication time until solution visibly clear ([2]; 2 mg/mL in 10 mM HEPES at pH=7.0, water bath sonicator) [min]	sonication time until solution visibly clear ([2]; 2 mg/mL in 10 mM HEPES at pH=8.0, water bath sonicator) [min]	SMILES
enhanced stability	–	–	CCCCCCCCCCC[C@H](CC(=O)N[C@H]1[C@H](OC[C@H](NC(=O)C[C@@H](CCCCCCCCCCC)OC(=O)CCCCCCCCC)C(=O)O)O[C@H](CO)[C@@H](OP(=O)(O)O)[C@@H]1OC(=O)C[C@@H](CCCCCCCCCCC)OC(=O)CCCCCCCCC)OC(=O)CCCCCCCCC [CRX-527]
enhanced stability	25	25	CCCCCCCCCCC[C@H](CC(=O)N[C@H]1[C@H](OC[C@H](NC(=O)C[C@@H](CCCCCCCCCCC)OCCCCCCCCCC)C(=O)O)O[C@H](CO)[C@@H](OP(=O)(O)O)[C@@H]1OC(=O)C[C@@H](CCCCCCCCCCC)OCCCCCCCCCC)OCCCCCCCCCC [CRX-601]
